The Kinase Knowledgebase extract (Sharma et al. 2016)

Tests used:
[1] = biological target: EGFR (human) (UniProt P00533)
[2] = biological target: EGFR (human) (UniProt P00533); details: hn5

Sequence of EGFR (human) (P00533 whole entry, looked up): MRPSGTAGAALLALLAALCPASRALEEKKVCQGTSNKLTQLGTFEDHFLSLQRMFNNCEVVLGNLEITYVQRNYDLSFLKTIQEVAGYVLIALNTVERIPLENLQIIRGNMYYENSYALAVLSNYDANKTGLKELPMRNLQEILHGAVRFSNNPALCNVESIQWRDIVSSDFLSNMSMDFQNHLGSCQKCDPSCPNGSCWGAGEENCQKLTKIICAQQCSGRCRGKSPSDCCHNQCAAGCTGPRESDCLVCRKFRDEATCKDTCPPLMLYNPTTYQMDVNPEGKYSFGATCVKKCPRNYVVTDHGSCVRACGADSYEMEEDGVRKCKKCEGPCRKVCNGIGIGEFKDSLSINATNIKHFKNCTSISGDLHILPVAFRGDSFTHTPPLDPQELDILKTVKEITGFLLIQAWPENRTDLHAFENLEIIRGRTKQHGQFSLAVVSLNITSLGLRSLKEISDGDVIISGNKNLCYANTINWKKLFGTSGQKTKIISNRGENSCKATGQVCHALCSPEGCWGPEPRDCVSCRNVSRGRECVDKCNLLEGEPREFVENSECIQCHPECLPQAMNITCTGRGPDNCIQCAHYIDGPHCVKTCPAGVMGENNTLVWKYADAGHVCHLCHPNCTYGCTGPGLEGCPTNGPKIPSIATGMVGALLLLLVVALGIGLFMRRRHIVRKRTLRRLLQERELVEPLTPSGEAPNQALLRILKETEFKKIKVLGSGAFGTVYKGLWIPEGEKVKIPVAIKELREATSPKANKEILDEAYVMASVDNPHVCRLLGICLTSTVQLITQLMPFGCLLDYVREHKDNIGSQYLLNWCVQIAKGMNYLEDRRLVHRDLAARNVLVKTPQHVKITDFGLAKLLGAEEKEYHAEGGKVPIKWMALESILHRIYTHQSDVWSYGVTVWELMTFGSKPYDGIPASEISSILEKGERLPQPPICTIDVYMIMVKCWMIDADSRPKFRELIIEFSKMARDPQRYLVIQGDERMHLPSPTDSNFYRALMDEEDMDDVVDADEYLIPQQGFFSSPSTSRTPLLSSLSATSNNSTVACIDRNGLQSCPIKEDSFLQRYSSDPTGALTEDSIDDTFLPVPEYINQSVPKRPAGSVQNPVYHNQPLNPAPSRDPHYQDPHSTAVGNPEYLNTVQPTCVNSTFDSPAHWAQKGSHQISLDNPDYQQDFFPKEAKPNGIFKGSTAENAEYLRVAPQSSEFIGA

Row | IC50 [1] | IC50 [2] | SMILES
1 | 29 nM | 1130 nM | CS(=O)(=O)CCNCc1ccc(-c2ccc3ncnc(Nc4ccc(S(=O)(=O)c5ccccc5)cc4)c3c2)o1
2 | 25 nM | 430 nM | CS(=O)(=O)CCNCc1ccc(-c2cc3c(Nc4ccc(OCc5ccccc5)cc4)ncnc3cn2)o1
3 | 36 nM | 300 nM | CN(CCO)c1cc2c(Nc3ccc4c(cnn4Cc4ccccc4)c3)ncnc2cn1
4 | 26 nM | 830 nM | Cc1nnc(-c2ccc3ncnc(Nc4ccc5c(cnn5Cc5cccc(F)c5)c4)c3c2)o1
